# Data: PubChem BioAssay AID330 (DTP/NCI, 2004)
# Values joined by “and” are separate entries in the source; they are usually repeats but may differ in a detail not shown here. Identical values can stand only once. Inconclusive results and toxic doses are left out.
# Tested on: P388 leukemia ip, CD2F1 mice, survival T/C
# Assay: NCI In Vivo Anticancer Drug Screen. Data for tumor model P388 Leukemia (intraperitoneal) in CD2F1 (CDF1) mice
# Conditions: endpoint: median survival time, higher = longer survival
# How it was run: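 Mice carrying the transplanted tumor received test compound or vehicle. Survival was recorded in each group, and the value is the treated-group measurement divided by that of the vehicle-treated control group.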
# [1] = dose: 60.0 mg/kg/injection, schedule: Q01DX005 (ip), vehicle: Klucel (hydroxypropylcellulose) (HPC)
# [2] = dose: 120.0 mg/kg/injection, schedule: Q01DX005 (ip), vehicle: Klucel (hydroxypropylcellulose) (HPC)
# [3] = dose: 240.0 mg/kg/injection, schedule: Q01DX005 (ip), vehicle: Klucel (hydroxypropylcellulose) (HPC)
# [4] = dose: 100.0 mg/kg/injection, schedule: Q04DX003 (ip), vehicle: Klucel (hydroxypropylcellulose) (HPC)
# [5] = dose: 200.0 mg/kg/injection, schedule: Q04DX003 (ip), vehicle: Klucel (hydroxypropylcellulose) (HPC)
# [6] = dose: 50.0 mg/kg/injection, schedule: Q01DX009 (ip), vehicle: saline with Tween-80
# [7] = dose: 100.0 mg/kg/injection, schedule: Q01DX009 (ip), vehicle: saline with Tween-80
# [8] = dose: 200.0 mg/kg/injection, schedule: Q01DX009 (ip), vehicle: saline with Tween-80
# [9] = dose: 50.0 mg/kg/injection, schedule: Q01DX009 (ip), vehicle: saline
# [10] = dose: 100.0 mg/kg/injection, schedule: Q01DX009 (ip), vehicle: saline
# [11] = dose: 6.25 mg/kg/injection, schedule: Q01DX009 (ip), vehicle: saline
# [12] = dose: 6.25 mg/kg/injection, schedule: Q04DX003 (ip), vehicle: saline
# [13] = dose: 12.5 mg/kg/injection, schedule: Q01DX009 (ip), vehicle: saline
# [14] = dose: 25.0 mg/kg/injection, schedule: Q01DX009 (ip), vehicle: saline
structure (smiles),measurement,setting,value
C[CH2][Sn]([F])([CH2]C)[CH2]C,T/C,"dose: 0.37 mg/kg/injection, schedule: Q01DX009 (ip), vehicle: saline with Tween-80",90 % of control
same,T/C,"dose: 0.38 mg/kg/injection, schedule: Q01DX009 (ip), vehicle: Klucel (hydroxypropylcellulose) (HPC)",101 % of control and 96 % of control
same,T/C,"dose: 0.75 mg/kg/injection, schedule: Q01DX009 (ip), vehicle: Klucel (hydroxypropylcellulose) (HPC)",104 % of control and 108 % of control and 96 % of control
same,T/C,"dose: 0.75 mg/kg/injection, schedule: Q01DX009 (ip), vehicle: saline with Tween-80",105 % of control
same,T/C,"dose: 1.5 mg/kg/injection, schedule: Q01DX009 (ip), vehicle: Klucel (hydroxypropylcellulose) (HPC)",102 % of control and 103 % of control and 114 % of control
same,T/C,"dose: 1.5 mg/kg/injection, schedule: Q01DX009 (ip), vehicle: saline with Tween-80",100 % of control
same,T/C,"dose: 3.0 mg/kg/injection, schedule: Q01DX009 (ip), vehicle: Klucel (hydroxypropylcellulose) (HPC)",109 % of control and 116 % of control
COC(=O)NC1(NC(=O)OC)NC(=O)c2cc(OC)c(OC)c(OC)c2N1,T/C,"dose: 25.0 mg/kg/injection, schedule: Q01DX005 (ip), vehicle: saline + alcohol",102 % of control
same,T/C,"dose: 50.0 mg/kg/injection, schedule: Q01DX005 (ip), vehicle: saline + alcohol",98 % of control
same,T/C,"dose: 100.0 mg/kg/injection, schedule: Q01DX005 (ip), vehicle: saline + alcohol",100 % of control
same,T/C,"dose: 200.0 mg/kg/injection, schedule: Q01DX005 (ip), vehicle: saline + alcohol",93 % of control
N#Cc1c(F)cccc1N1CCSCC1,T/C,[1],109 % of control
same,T/C,[2],93 % of control
same,T/C,[3],89 % of control
[N-]=[N+]=CC(=O)c1ccc(Cl)cc1,T/C,[4],108 % of control
same,T/C,[5],115 % of control
same,T/C,"dose: 400.0 mg/kg/injection, schedule: Q04DX003 (ip), vehicle: Klucel (hydroxypropylcellulose) (HPC)",107 % of control
O=C(/C=C/c1ccccc1Cl)c1ccccc1,T/C,[6],112 % of control
same,T/C,[7],110 % of control
same,T/C,[8],114 % of control
CC(C)OS(=O)(=O)c1ccc([N+](=O)[O-])cc1,T/C,[9],94 % of control
same,T/C,[10],100 % of control
same,T/C,"dose: 200.0 mg/kg/injection, schedule: Q01DX009 (ip), vehicle: saline",105 % of control
Cc1cc(=NC(C)(C)C)nc2c3ccccc3c(Cl)cn12,T/C,"dose: 1.56 mg/kg/injection, schedule: Q01DX005 (ip), vehicle: saline with Tween-80",100 % of control
same,T/C,"dose: 3.13 mg/kg/injection, schedule: Q01DX005 (ip), vehicle: saline with Tween-80",100 % of control
same,T/C,"dose: 6.25 mg/kg/injection, schedule: Q01DX005 (ip), vehicle: saline with Tween-80",103 % of control and 98 % of control
O=c1oc2cc(-c3c(O)c4ccccc4oc3=O)c(O)cc2s1,T/C,"dose: 100.0 mg/kg/injection, schedule: Q01DX001 (ip), vehicle: Klucel (hydroxypropylcellulose) (HPC)",113 % of control
same,T/C,"dose: 200.0 mg/kg/injection, schedule: Q01DX001 (ip), vehicle: Klucel (hydroxypropylcellulose) (HPC)",104 % of control
same,T/C,"dose: 400.0 mg/kg/injection, schedule: Q01DX001 (ip), vehicle: Klucel (hydroxypropylcellulose) (HPC)",106 % of control
CSc1ncnc2sc(NN)nc12,T/C,"dose: 100.0 mg/kg/injection, schedule: Q01DX001 (ip), vehicle: distilled water + alcohol",94 % of control
same,T/C,"dose: 200.0 mg/kg/injection, schedule: Q01DX001 (ip), vehicle: distilled water + alcohol",94 % of control
same,T/C,"dose: 400.0 mg/kg/injection, schedule: Q01DX001 (ip), vehicle: distilled water + alcohol",102 % of control
NC(N)=N/N=C/C=N/N=C(N)N,T/C,[11],118 % of control
same,T/C,[12],100 % of control
same,T/C,[13],100 % of control
same,T/C,[14],95 % of control and 100 % of control
same,T/C,"dose: 25.0 mg/kg/injection, schedule: Q04DX003 (ip), vehicle: saline",90 % of control and 100 % of control
same,T/C,[9],86 % of control and 100 % of control
same,T/C,"dose: 50.0 mg/kg/injection, schedule: Q04DX003 (ip), vehicle: saline",100 % of control
same,T/C,[10],86 % of control
same,T/C,"dose: 100.0 mg/kg/injection, schedule: Q04DX003 (ip), vehicle: saline",95 % of control and 100 % of control
O=[n+]1c2c(n([O-])c3ccccc31)CCC2,T/C,[6],98 % of control
same,T/C,[7],100 % of control
same,T/C,[8],108 % of control
CC(C)(O)c1cccc2c(C(C)(C)O)cccc12,T/C,"dose: 50.0 mg/kg/injection, schedule: Q01DX009 (ip), vehicle: Klucel (hydroxypropylcellulose) (HPC)",88 % of control
same,T/C,"dose: 100.0 mg/kg/injection, schedule: Q01DX009 (ip), vehicle: Klucel (hydroxypropylcellulose) (HPC)",97 % of control
same,T/C,"dose: 200.0 mg/kg/injection, schedule: Q01DX009 (ip), vehicle: Klucel (hydroxypropylcellulose) (HPC)",93 % of control and 94 % of control
same,T/C,"dose: 400.0 mg/kg/injection, schedule: Q01DX009 (ip), vehicle: Klucel (hydroxypropylcellulose) (HPC)",91 % of control
O=P(O)(O)SP(=O)(O)O.[Zn+2],T/C,[4],101 % of control
same,T/C,[5],105 % of control
O=[N+]([O-])C(CO)(CO)CC(F)(F)F,T/C,[12],100 % of control
CC(C)C(=O)NCCCCCCN1CCCCC1,T/C,"dose: 50.0 mg/kg/injection, schedule: Q01DX005 (ip), vehicle: saline",96 % of control
same,T/C,"dose: 100.0 mg/kg/injection, schedule: Q01DX005 (ip), vehicle: saline",100 % of control
CCC[CH2][Sn](=[O])[c]1ccccc1,T/C,"dose: 12.5 mg/kg/injection, schedule: Q04DX002 (ip), vehicle: saline with Tween-80",100 % of control and 119 % of control
same,T/C,"dose: 25.0 mg/kg/injection, schedule: Q04DX002 (ip), vehicle: saline with Tween-80",103 % of control and 106 % of control
same,T/C,"dose: 50.0 mg/kg/injection, schedule: Q04DX002 (ip), vehicle: saline with Tween-80",103 % of control and 109 % of control
same,T/C,"dose: 100.0 mg/kg/injection, schedule: Q04DX002 (ip), vehicle: saline with Tween-80",103 % of control and 116 % of control
OCC1OC(N(O)c2ccc(Oc3c(Cl)cc(Cl)cc3Cl)cc2)C(O)C(O)C1O (stereo unspecified),T/C,[1],100 % of control
same,T/C,[2],100 % of control
N=c1c2[nH]cnc2ncn1O,T/C,[1],92 % of control
same,T/C,[2],93 % of control
CC1=C(C(=O)Nc2ccccc2C)C(c2cccc([N+](=O)[O-])c2)C(C(=O)Nc2ccccc2C)=C(C)N1,T/C,"dose: 15.0 mg/kg/injection, schedule: Q01DX005 (ip), vehicle: Klucel (hydroxypropylcellulose) (HPC)",102 % of control
same,T/C,"dose: 30.0 mg/kg/injection, schedule: Q01DX005 (ip), vehicle: Klucel (hydroxypropylcellulose) (HPC)",93 % of control
same,T/C,[1],88 % of control and 97 % of control
CC1(C)Oc2c(C=O)c(O)cc3c2C2CC1CCC2(C)O3 (stereo unspecified),T/C,"dose: 9.0 mg/kg/injection, schedule: Q01DX009 (ip), vehicle: saline with Tween-80",102 % of control
same,T/C,"dose: 18.0 mg/kg/injection, schedule: Q01DX009 (ip), vehicle: saline with Tween-80",96 % of control
same,T/C,"dose: 36.0 mg/kg/injection, schedule: Q01DX009 (ip), vehicle: saline with Tween-80",102 % of control
CCn1c2ccccc2c2cc(N=Cc3cccc([N+](=O)[O-])c3)ccc21,T/C,[6],97 % of control
same,T/C,[7],98 % of control
same,T/C,[8],88 % of control
O=C(CCC(=O)Nc1ccc2[nH]c3ccccc3c(=O)c2c1)Nc1ccc2[nH]c3ccccc3c(=O)c2c1,T/C,[1],99 % of control
same,T/C,[2],96 % of control
same,T/C,[3],97 % of control
CCOC(=O)NSCC,T/C,[11],100 % of control
same,T/C,[13],103 % of control
same,T/C,[14],105 % of control
CC1(C)OC(COCCO)C(COCCO)O1 (stereo unspecified),T/C,"dose: 100.0 mg/kg/injection, schedule: Q01DX001 (ip), vehicle: saline",92 % of control
same,T/C,"dose: 200.0 mg/kg/injection, schedule: Q01DX001 (ip), vehicle: saline",91 % of control
same,T/C,"dose: 400.0 mg/kg/injection, schedule: Q01DX001 (ip), vehicle: saline",92 % of control
CC1CCCC(NC(=O)N(CCCl)N=O)C1 (stereo unspecified),T/C,"dose: 4.0 mg/kg/injection, schedule: Q04DX003 (ip), vehicle: saline with Tween-80",118 % of control
same,T/C,"dose: 6.25 mg/kg/injection, schedule: Q01DX009 (ip), vehicle: saline with Tween-80",175 % of control
same,T/C,"dose: 12.5 mg/kg/injection, schedule: Q01DX009 (ip), vehicle: saline with Tween-80",225 % of control
same,T/C,"dose: 16.0 mg/kg/injection, schedule: Q04DX003 (ip), vehicle: saline with Tween-80",177 % of control
same,T/C,"dose: 25.0 mg/kg/injection, schedule: Q01DX009 (ip), vehicle: saline with Tween-80",272 % of control and 295 % of control
same,T/C,"dose: 25.0 mg/kg/injection, schedule: Q04DX003 (ip), vehicle: saline with Tween-80",245 % of control
same,T/C,"dose: 50.0 mg/kg/injection, schedule: Q04DX003 (ip), vehicle: saline with Tween-80",118 % of control
